# Laboratory results: patent publication US20060293378A1, “Method of lowering intraocular pressure” (priority 2005, published 2006)
# System: intraocular pressure
# Test: Intraocular pressure in rabbits after injection of an aqueous suspension into the right eye, compared with untreated left eyes
# Format: in vivo
# Conditions: suspension of 2 mg/mL compound with 7.5 mg/mL sodium carboxymethylcellulose injected into right eyes, dosages 60 μg, 100 μg and 140 μg, versus untreated left eyes, maintained over the 14 days of the test, FIGS. 1 to 3
# Protocol: An aqueous suspension was produced containing 2 mg/mL of compound 21 illustrated above together with 7.5 mg/mL of sodium carboxymethylcellulose.
compound,measurement,value
CC(C)OCc1ccc2c(c1)c1c3c(c4c(c1n2CCCOC(=O)CN(C)C)Cc1ccccc1-4)C(=O)NC3 [Compound 21],effect on intraocular pressure over time,significantly increased lowering of intraocular pressure
